# Tests used:
# [1] = test system: human dermal fibroblasts; experiment: Immunodetection of elastin in cultured human dermal fibroblasts; type: cell-based
# Protocol: (§1) Biological effects of tannic acid in the presence of hyaluronic acid or ferulic acid were tested on dermal fibroblasts derived from punch biopsies of healthy skin. All fibroblasts were isolated by allowing migration out of skin explants and passaged by trypsinization. Fibroblasts were maintained in alpha-minimum essential medium supplemented with 20 mM HEPES, 1% antibiotics and antimycotics, 1% L-Glutamate and 2% fetal bovine serum (FBS). Cells were plated ([…] cells/dish) to reach confluency and were cultured for 7 days in the presence or absence of hyaluronic acid (0.1%), ferulic acid ([…]), tannic acid (2 μg/mL), or a combination thereof.
# (§2) Cell cultures prepared according to Example 1 maintained in the presence or absence of tannic acid, hyaluronic acid, or ferulic acid were fixed in cold 100% methanol at […] for detection of elastin or in 4% paraformaldehyde at room temperature for detection of collagen I. The multiple parallel cultures were incubated with […] of polyclonal antibody to tropoelastin (Elastin Products, Owensville, Mich.), or polyclonal antibody to collagen type I (Chemicon, Temecula, Calif.). Cultures were incubated with the respective fluorescein-conjugated goat anti-rabbit, goat anti-mouse, or rabbit anti-goat secondary antibodies. Nuclei were counter stained with propidium iodide (Sigma, St. Louis, Mo.). All cultures were examined with a Nikon Eclipse E1000 microscope attached to a cooled CCD camera (QImaging, Retiga EX) and analyzed with the computer-generated morphometric analysis system, in which the Image-Pro Plus software (Media Cybernetics, Silver Springs, Md.) estimates the proportion of areas marked with green fluorescence, in relation to the entire (1 square mm) analyzed field.
# Cultured human dermal fibroblasts were grown in the presence or absence of tannic acid at low concentration (2 μg/mL) and high concentration (20 μg/mL). Immunodetection of elastin was performed as described in Example 2.
# (§3) Cultured human dermal fibroblasts were grown in the presence of or absence of vitamin D (10^−7 M), tannic acid ([…]), or a combination of vitamin D and tannic acid (2 μg/mL) (FIGS. 2A-2B and FIGS. 3A-3C). Immunodetection of elastin was performed as described above.
# Cultured human dermal fibroblasts were grown in the presence of or absence hyaluronic acid (0.1%), tannic acid (2 μg/mL), or a combination of hyaluronic acid (0.1%) and tannic acid (2 μg/mL). Immunodetection of elastin was performed as described above.
# Cultured human dermal fibroblasts were grown in the presence or absence of ferulic acid (5 μg/mL), tannic acid (2 μg/mL), or a combination of ferulic acid (5 μg/mL) and tannic acid (2 μg/mL). Immunodetection of elastin and collagen I was performed as described above. Results are shown in FIGS. 5A-5C, and FIGS. 6A-6B for elastin and FIGS. 7A-7C and FIG. 8 for collagen.
# Cultured human dermal fibroblasts were grown in the presence or absence of ferulic acid (20 μM), tannic acid (2 μg/mL), or copper sulfate (2 μM). Fibroblasts were also grown in presence of a combination of ferulic acid (20 μM) and copper sulfate (2 μM), a combination of ferulic acid (20 μM) and tannic acid (2 μg/mL), and a combination of tannic acid (2 μg/mL) and copper sulfate (2 μM). Immunodetection of elastin was performed as described above.
# [2] = test system: human dermal fibroblasts; experiment: Immunodetection of collagen I in cultured human dermal fibroblasts; type: cell-based; details: ferulic acid (5 μg/mL) alone
# Protocol: as §1
# as §2, with “All cultures were examined with a Nikon Eclipse E1000 microscope attached to a cooled CCD camera (QImaging, Retiga EX) and analyzed with the computer-generated morphometric analysis system, in which the Image-Pro Plus software (Media Cybernetics, Silver Springs, Md.) estimates the proportion of areas marked with green fluorescence, in relation to the entire (1 square mm) analyzed field.” left out
# [3] = test system: fibroblast cultures; experiment: Tropoelastin in fibroblast cultures measured using PCR; type: cell-based, human; details: PCR after 18 hours; tannic acid added to cultures that contained vitamin D3
# Protocol: FIG. 2A depicts the amount of tropoelastin in fibroblast cultures measured using PCR after 18 hours.
# as §3
# [4] = cited from earlier work
# [5] = tannic acid (2 μg/mL) added to hyaluronic acid (0.1%)
# [6] = tannic acid (2 μg/mL) added to vitamin D (10^−7 M)
compound,measurement,setting,value
vitamin D [reference compound],elastin production,[1]; vitamin D (10^−7 M) alone,causes inhibition of elastin production
hyaluronic acid,elastin production,[1]; hyaluronic acid (0.1%) alone,causes inhibition of elastin production
"O=S(=O)([O-])[O-].[Cu+2] [copper sulfate, reference compound]",effect on elastin,[1]; copper sulfate (2 μM),little effect on elastin
COc1cc(/C=C/C(=O)O)ccc1O [ferulic acid],concentrations of collagen,[2],minimal effect on concentrations of collagen
same,concentrations of elastin,[1]; ferulic acid (5 μg/mL) alone,negative effect on concentrations of elastin
same,effect on elastin,[1]; ferulic acid (20 μM),leads to a reduction in elastin
O=C(OC[C@H]1O[C@@H](OC(=O)c2cc(O)c(O)c(OC(=O)c3cc(O)c(O)c(O)c3)c2)[C@H](OC(=O)c2cc(O)c(O)c(OC(=O)c3cc(O)c(O)c(O)c3)c2)[C@@H](OC(=O)c2cc(O)c(O)c(OC(=O)c3cc(O)c(O)c(O)c3)c2)[C@@H]1OC(=O)c1cc(O)c(O)c(OC(=O)c2cc(O)c(O)c(O)c2)c1)c1cc(O)c(O)c(OC(=O)c2cc(O)c(O)c(O)c2)c1 [tannic acid],amount of tropoelastin,[3],increased the amount of tropoelastin
same,production of elastin,[1]; tannic acid (2 μg/mL) added to ferulic acid (5 μg/mL),improved production of elastin even in the presence of ferulic acid
same,elastin fiber formation,[1]; [5],abolished the inhibitory effect of hyaluronic acid on elastin fiber formation
same,net deposition of elastin,[1]; [5],caused an improvement in net deposition of elastin
same,elastin fiber formation,[1]; [6],abolished the inhibitory effect of vitamin D on elastin fiber formation
same,net deposition of elastin,[1]; [6],caused an improvement in net deposition of elastin
same,elastin concentration,[1]; tannic acid at high concentration (20 μg/mL),caused elastosis
same,elastin concentration,"[1]; tannic acid at low concentration (2 μg/mL), compared to high concentration",improved elastin concentration
same,pKa,[4],about 6

# — patent US20230073764A1, “COMPOSITION OF TANNIC ACID AND VITAMIN D AND METHODS OF USE” (Elastogenesis, LLC, priority 2021, published 2023)
